Structures can show the parent of a compound that is named as a salt.

We go through 26 compounds from patent US10787444B2, “Compounds for the modulation of myc activity” (Syros Pharmaceuticals, Inc., priority 2015, dated 2020).

The subject of one assay is human small lung cancer cell line H2171. The assay is described as follows: Cell Viability Assay (ATPlite). Format: cell-based. The following applies: Homo sapiens, NCI-H2171, 72 h, Table 2, compounds of FIG. 1; H2171 cells, three days, ATPlite; calculated IC50 class; read-out: H2171 Activity. As for the experimental part: Compounds of the invention were assayed for cell viability using the human small lung cancer cell line H2171 as described in the following protocol. Cells were counted and adjusted to 20,000 cells/mL. Using a Biotek EL406, 50 μL of cells in media were distributed into 384 well white plates from Thermo. Immediately after plating, compound in DMSO was distributed to plates. Compounds were added to plates using a 50 nL 384 well pin transfer manifold on a Janus workstation. Stocks were arrayed in 10 point dose response in DMSO stock in 384 well Greiner compound plates. After the addition of compounds, plates were incubated for three days in a 37° C. incubator. Cell viability was read out using ATPlite from Perkin Elmer. Lyophilized powder was resuspended in lysis buffer and diluted 1:2 with deionized water. 25 μL of this solution was added to each well using the Biotek liquid handler. Plates were incubated for 15 minutes at room temperature before signal was read on an Envision Plate Reader. The data from this assay are summarized in Tables 2 and 3 below (H2171 activity).
For the compound `CCC(C)NCCC(=O)Nc1sc2c(c1-c1nc3cc(Br)ccc3s1)CCN(C(C)C)C2` (centres unmarked) [Compound 141, N-(3-(5-bromobenzo[d]thiazol-2-yl)-6-isopropyl-4,5,6,7-tetrahydrothieno[2,3-c]pyridin-2-yl)-3-(sec-butylamino)propanamide], the IC50 was 0.3 to 1 µM. Still for that read-out and setting: the value for `Cn1cc(CNCCC(=O)Nc2sc3c(c2-c2nc4ccccc4s2)CCNC3)cn1` [Compound 143, N-(3-(benzo[d]thiazol-2-yl)-4,5,6,7-tetrahydrothieno[2,3-c]pyridin-2-yl)-3-(((1-methyl-1H-pyrazol-4-yl)methyl)amino)propanamide] was less than 0.3 µM.

A further assay deals with T1, c-Myc/Max/Ebox DNA (Homo sapiens, UniProt P01106).
T1 construct: his6 (cleaved yes)
T1 sequence (P01106 whole entry): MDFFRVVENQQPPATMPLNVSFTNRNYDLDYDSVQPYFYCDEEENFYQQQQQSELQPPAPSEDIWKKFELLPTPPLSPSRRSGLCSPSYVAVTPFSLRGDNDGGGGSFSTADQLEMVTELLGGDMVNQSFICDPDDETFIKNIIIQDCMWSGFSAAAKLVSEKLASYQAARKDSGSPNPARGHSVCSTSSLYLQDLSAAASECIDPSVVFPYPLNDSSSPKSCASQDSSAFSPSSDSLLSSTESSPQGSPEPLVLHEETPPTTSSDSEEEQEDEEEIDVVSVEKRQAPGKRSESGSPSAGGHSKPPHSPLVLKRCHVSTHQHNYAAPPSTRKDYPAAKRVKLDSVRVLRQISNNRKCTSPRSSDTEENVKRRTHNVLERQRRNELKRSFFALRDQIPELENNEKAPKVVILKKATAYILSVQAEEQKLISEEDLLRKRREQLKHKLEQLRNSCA
The assay is described as follows: c-Myc/Max/Ebox DNA AlphaScreen Assay. As to conditions: Table 2, compounds of FIG. 1; calculated IC50 class. In kind it is binding. The method, then:
Compounds of the invention were assayed for c-Myc/Max/EBox activity as described in the following protocol. Human his6-c-Myc and his6-Max were used with biotinylated DNA containing a single Ebox sequence (biotin[…]) purchased from MWG Operon. Free c-Myc was generated from his6-c-Myc through thrombin cleavage of the his6 tag. For 384-well plate assays, 10 μL of a 2× solution of free c-Myc (20 nM final), Ni^2+ coated Acceptor Beads (25 μg/ml final), and biotinylated Ebox oligo (10 nM final) were added to 384-well plates with a Biotek EL406 liquid handler. 50 nL of compounds from stock plates were added by pin transfer using a Janus Workstation (PerkinElmer), allowing the compounds to interact with c-Myc prior to c-Myc binding with Max. In the current assay, DMSO was not allowed to exceed 2% v/v of the assay. 10 μl of 2× master mix containing streptavidin-coated donor beads (25 μg/ml final) and his6-Max (5 nM) were added. AlphaScreen measurements were performed on an Envision plate reader (PerkinElmer) utilizing the manufacturer's protocol.
Both master mixes were made in room temperature assay buffer (50 mM HEPES, 150 mM NaCl, 0.2% w/v BSA, 0.02% w/v Tween20, 40 μg/ml glycogen, 500 μM DTT, pH 8.0, wherein both DTT and glycogen were added fresh). Alpha beads were added to respective master solutions. All subsequent steps were performed in low light conditions. Solution 1:2× solution of components with final concentrations of c-Myc Ni-coated Acceptor Beads (25 μg/ml), and biotinylated Ebox oligo (10 nM). Solution 2:2× solution of streptavidin-coated donor beads (25 μg/ml final) and his6-Max 10 μL. […] 50 nL of compounds from stock plates were added by pin transfer using a Janus Workstation. Solution 2 (10 μl) was added with the liquid handler. Plates were sealed with foil to block light exposure and prevent evaporation. Plates were very briefly centrifuged followed by 2 hour incubation. […] Excitation was at 680 nm for donor bead release of singlet oxygen and emission was read with a bandpass filter from 520-620 nm.
In the case of `COCCNCCC(=O)Nc1sc2c(c1-c1nc3ccc(-c4ccncc4)cc3s1)CC(C)NC2C` (single isomer, unassigned) [Compound 518, N-(5,7-Dimethyl-3-(6-(pyridin-4-yl)benzo[d]thiazol-2-yl)-4,5,6,7-tetrahydrothieno[2,3-c]pyridin-2-yl)-3-((2-methoxyethyl)amino)propanamide], the IC50 is 1 to 10 µM. The same measure, in the same setting: for `CC(C)N1CCc2c(sc(NC(=O)CCNCCc3ccccc3Cl)c2-c2nc3ccccc3s2)C1` [Compound 109, N-(3-(benzo[d]thiazol-2-yl)-6-isopropyl-4,5,6,7-tetrahydrothieno[2,3-c]pyridin-2-yl)-3-((2-chlorophenethyl)amino)propanamide] the value was more than 10 µM; for `CC(C)N1CCc2c(sc(NC(=O)CCNCCCOCCOCCOCCCN)c2-c2nc3ccccc3s2)C1` [Compound 120, 1-amino-N-(3-(benzo[d]thiazol-2-yl)-6-isopropyl-4,5,6,7-tetrahydrothieno[2,3-c]pyridin-2-yl)-4,7,10-trioxa-14-azaheptadecan-17-amide], less than 0.3 µM.

On to `CCOC(=O)CNCCC(=O)Nc1sc2c(c1-c1nc3ccccc3s1)CCN(C(C)C)C2` [Compound 138, Ethyl (3-((3-(benzo[d]thiazol-2-yl)-6-isopropyl-4,5,6,7-tetrahydrothieno[2,3-c]pyridin-2-yl)amino)-3-oxopropyl)glycinate], for which the IC50 was 0.3 to 1 µM. For `CCC(C)NCCC(=O)Nc1sc2c(c1-c1nc3cc(Br)ccc3s1)CCNC2` (centres unmarked) [Compound 139, N-(3-(5-bromobenzo[d]thiazol-2-yl)-4,5,6,7-tetrahydrothieno[2,3-c]pyridin-2-yl)-3-(sec-butylamino)propanamide], the IC50 is less than 0.3 µM. The same measure, in the same setting: the value for `O=C(O)CNCCC(=O)Nc1sc2c(c1-c1nc3ccccc3s1)CCNC2` [Compound 166, (3-((3-(benzo[d]thiazol-2-yl)-4,5,6,7-tetrahydrothieno[2,3-c]pyridin-2-yl)amino)-3-oxopropyl)glycine] was 0.3 to 1 µM; that for `O=C(CCNCc1cn[nH]c1)Nc1sc2c(c1-c1nc3ccccc3s1)CCNC2` [Compound 167, 3-(((1H-pyrazol-4-yl)methyl)amino)-N-(3-(benzo[d]thiazol-2-yl)-4,5,6,7-tetrahydrothieno[2,3-c]pyridin-2-yl)propanamide] was less than 0.3 µM.

As to `CC(C)N1CCc2c(sc(NC(=O)CCNCC(=O)O)c2-c2nc3ccccc3s2)C1` [Compound 168, (3-((3-(benzo[d]thiazol-2-yl)-6-isopropyl-4,5,6,7-tetrahydrothieno[2,3-c]pyridin-2-yl)amino)-3-oxopropyl)glycine], the IC50 is 0.3 to 1 µM.

As to `Cc1cccc2oc(-c3c(NC(=O)CCNC(C)C)sc4c3CCNC4)nc12` [Compound 311, 3-(Isopropylamino)-N-(3-(4-methylbenzo[d]oxazol-2-yl)-4,5,6,7-tetrahydrothieno[2,3-c]pyridin-2-yl)propanamide dihydrochloride], the IC50 was 0.3 to 1 µM. Same read-out and setting: for `COCCNCCC(=O)Nc1sc2c(c1-c1nc3ccccc3s1)C[C@H](C)NC2` [Compound 538, (S)—N-(3-(Benzo[d]thiazol-2-yl)-5-methyl-4,5,6,7-tetrahydrothieno[2,3-c]pyridin-2-yl)-3-((2-methoxyethyl)amino)propanamide] the value was 0.3 to 1 µM. Regarding “N-(3-(Benzo[d]thiazol-2-yl)-6-isopropyl-4,5,6,7-tetrahydrothieno[2,3-c]pyridin-2-yl)-3-(isobutylamino)propanamide [Compound 552]”, the IC50 was more than 10 µM. On the same count and under the same terms, for “N-((5S,7R)-5,7-dimethyl-3-(5-(pyridin-4-yl)benzo[d]thiazol-2-yl)-4,5,6,7-tetrahydrothieno[2,3-c]pyridin-2-yl)-3-((2-methoxyethyl)amino)propanamide [Compound 532]” the value was 1 to 10 µM.

The assay is the same for the next values; noted with them: Table 3, compounds of FIG. 2; calculated IC50 class.
Turning to `CC(=O)Nc1sc2c(c1-c1nc3ccccc3s1)[C@H](C)CN(C(C)C)C2` [Compound 207, (S)—N-(3-(benzo[d]thiazol-2-yl)-6-isopropyl-4-methyl-4,5,6,7-tetrahydrothieno[2,3-c]pyridin-2-yl)acetamide], the IC50 was 1 to 10 µM. On the same count and under the same terms, the value for `CC(=O)Nc1sc2c(c1-c1nc3ccccc3s1)[C@@H](C)CN(C(C)C)C2` [Compound 208, (R)—N-(3-(benzo[d]thiazol-2-yl)-6-isopropyl-4-methyl-4,5,6,7-tetrahydrothieno[2,3-c]pyridin-2-yl)acetamide] was 1 to 10 µM; that for `CC(=O)Nc1sc2c(c1-c1nc3ccccc3s1)CC(C)NC2` (centres unmarked) [Compound 209, N-(3-(benzo[d]thiazol-2-yl)-5-methyl-4,5,6,7-tetrahydrothieno[2,3-c]pyridin-2-yl)acetamide] was 1 to 10 µM. As for `CC(=O)Nc1sc2c(c1-c1nc3ccccc3s1)CCNC2C` (centres unmarked) [Compound 210, N-(3-(benzo[d]thiazol-2-yl)-7-methyl-4,5,6,7-tetrahydrothieno[2,3-c]pyridin-2-yl)acetamide], the IC50 was 1 to 10 µM. The same measure, in the same setting: for `CCN1[C@H](C)Cc2c(sc(NC(C)=O)c2-c2nc3ccccc3s2)[C@@H]1C` [Compound 211, N-(3-(benzo[d]thiazol-2-yl)-6-ethyl-5,7-dimethyl-4,5,6,7-tetrahydrothieno[2,3-c]pyridin-2-yl)acetamide] the value was 1 to 10 µM. On the same count and under the same terms, the value for `CC(=O)Nc1sc2c(c1-c1nc3ccccc3s1)C(C)CCNC2` (centres unmarked) [Compound 212, N-(3-(benzo[d]thiazol-2-yl)-4-methyl-5,6,7,8-tetrahydro-4H-thieno[2,3-c]azepin-2-yl)acetamide] was more than 10 µM; that for `CC(=O)Nc1sc2c(c1-c1nc3ccccc3s1)C(C)CCN(C(C)C)C2` (centres unmarked) [Compound 213, N-(3-(benzo[d]thiazol-2-yl)-7-isopropyl-4-methyl-5,6,7,8-tetrahydro-4H-thieno[2,3-c]azepin-2-yl)acetamide] was more than 10 µM; that for `CC(=O)Nc1sc2c(c1-c1nc3ccccc3s1)CCNC2C(F)(F)F` (centres unmarked) [Compound 214, N-(3-(benzo[d]thiazol-2-yl)-7-(trifluoromethyl)-4,5,6,7-tetrahydrothieno[2,3-c]pyridin-2-yl)acetamide] was more than 10 µM. As for `CC(=O)Nc1sc2c(c1-c1nc3ccccc3s1)CC(C(F)(F)F)NC2` (centres unmarked) [Compound 215, N-(3-(benzo[d]thiazol-2-yl)-5-(trifluoromethyl)-4,5,6,7-tetrahydrothieno[2,3-c]pyridin-2-yl)acetamide], the IC50 is more than 10 µM. Same read-out and setting: the value for `CC(=O)Nc1sc2c(c1-c1nc3ccccc3s1)CCN(C(C)C)C2C` (centres unmarked) [Compound 216, N-(3-(benzo[d]thiazol-2-yl)-6-isopropyl-7-methyl-4,5,6,7-tetrahydrothieno[2,3-c]pyridin-2-yl)acetamide] was more than 10 µM; that for `CC(=O)Nc1sc2c(c1-c1nc3ccccc3s1)CCC(NC(C)=O)C2` (centres unmarked) [Compound 222, N,N′-(3-(benzo[d]thiazol-2-yl)-4,5,6,7-tetrahydrobenzo[b]thiophene-2,6-diyl)diacetamide] was more than 10 µM; that for `CC(=O)Nc1sc2c(c1-c1nc3ccccc3s1)CCC(NC1CCN(C(=O)OC(C)(C)C)CC1)C2` (centres unmarked) [Compound 228, tert-butyl 4-((2-acetamido-3-(benzo[d]thiazol-2-yl)-4,5,6,7-tetrahydrobenzo[b]thiophen-6-yl)amino)piperidine-1-carboxylate] was more than 10 µM.
